Data taken from PMC5048684 (The journal of physical chemistry. B, 2016).
Like-named read-outs stand apart in the source and are kept apart here.

Assays:
[1] = biological target: T1, CYP2C9 (Homo sapiens, UniProt P11712); experiment: Luminescence titration of solubilized CYP2C9 with type I and type II ligands
[2] = biological target: T2, P450cam (Pseudomonas putida, UniProt P00183); conditions: read-out: KS (literature values); depending on the stereoisomer used; cited from earlier work
T2 sequence (P00183 1-415): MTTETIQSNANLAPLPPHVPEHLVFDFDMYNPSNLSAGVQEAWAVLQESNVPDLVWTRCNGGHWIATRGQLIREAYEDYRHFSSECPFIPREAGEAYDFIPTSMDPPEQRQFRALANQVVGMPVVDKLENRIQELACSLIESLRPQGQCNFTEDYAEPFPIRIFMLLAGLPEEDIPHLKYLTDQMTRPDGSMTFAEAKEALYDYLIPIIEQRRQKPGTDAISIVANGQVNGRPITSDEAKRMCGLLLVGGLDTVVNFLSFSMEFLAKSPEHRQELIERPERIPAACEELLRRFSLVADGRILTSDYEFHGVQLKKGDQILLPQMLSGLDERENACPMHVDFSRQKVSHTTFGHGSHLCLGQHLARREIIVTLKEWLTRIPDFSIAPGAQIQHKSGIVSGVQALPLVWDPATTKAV

[3] = biological target: T1, CYP2C9; conditions: read-out: KS (reported value); ref Hutzler et al. 31; cited from earlier work
[4] = biological target: CYP3A4 (Homo sapiens, UniProt P08684); experiment: Luminescence titration of solubilized CYP3A4 with type I and type II ligands
Chain of CYP3A4 (P08684 whole entry): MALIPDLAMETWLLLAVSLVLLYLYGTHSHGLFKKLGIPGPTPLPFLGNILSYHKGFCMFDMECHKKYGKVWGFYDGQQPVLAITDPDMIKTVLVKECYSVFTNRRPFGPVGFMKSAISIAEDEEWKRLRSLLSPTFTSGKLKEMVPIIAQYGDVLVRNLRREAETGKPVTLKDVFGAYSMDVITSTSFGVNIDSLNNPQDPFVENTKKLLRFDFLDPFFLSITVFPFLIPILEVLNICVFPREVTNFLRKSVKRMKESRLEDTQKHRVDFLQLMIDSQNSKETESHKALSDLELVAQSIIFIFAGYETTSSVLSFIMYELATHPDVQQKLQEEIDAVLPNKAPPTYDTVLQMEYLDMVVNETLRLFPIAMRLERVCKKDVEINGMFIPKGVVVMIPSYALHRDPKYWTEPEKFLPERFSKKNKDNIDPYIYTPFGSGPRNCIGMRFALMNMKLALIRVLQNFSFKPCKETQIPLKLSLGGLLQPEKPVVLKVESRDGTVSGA

T1 sequence (P11712 whole entry): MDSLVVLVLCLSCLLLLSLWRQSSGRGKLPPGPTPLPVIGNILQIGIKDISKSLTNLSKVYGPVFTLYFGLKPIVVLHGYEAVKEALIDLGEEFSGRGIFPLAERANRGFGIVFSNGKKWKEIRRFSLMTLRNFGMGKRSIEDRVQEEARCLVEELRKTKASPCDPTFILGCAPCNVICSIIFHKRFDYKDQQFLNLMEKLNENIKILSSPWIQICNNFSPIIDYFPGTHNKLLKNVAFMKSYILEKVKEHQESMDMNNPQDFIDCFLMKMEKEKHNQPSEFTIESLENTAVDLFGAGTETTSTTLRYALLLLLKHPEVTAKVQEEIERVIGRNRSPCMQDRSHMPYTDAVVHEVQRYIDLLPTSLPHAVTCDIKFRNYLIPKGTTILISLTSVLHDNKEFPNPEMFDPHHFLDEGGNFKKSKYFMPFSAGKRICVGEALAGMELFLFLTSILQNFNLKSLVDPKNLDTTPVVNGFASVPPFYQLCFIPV

With `O=C(Nc1ccc2ccccc2c1)c1cc(-c2ccncc2)nc2ccccc12` [QC, N-(naphthalene-2-yl)-2-(pyridine-4-yl)quinoline-4-carboxamide] the Kd [1] was 0.11 ± 0.06 µM.
In the case of `CC12CCC(CC1=O)C2(C)C` (centres unmarked) [camphor], the Kd [2] is listed as 1.6 to 2.6 µM.
In the case of `CC(C(=O)O)c1ccc(-c2ccccc2)c(F)c1` (centres unmarked) [flurbiprofen], the Kd [1] is listed as 20.2 ± 1.1 µM and the Kd [3] is listed as 14.1 µM.
Work on `C[C@]12CC[C@H]3[C@@H](CCC4=CC(=O)CC[C@@]43C)[C@@H]1CC[C@@H]2O` [testosterone] yielded a Kd [4] of 30.5 ± 6.5 µM.
